In experiment [1] the target is Serine/threonine-protein kinase Nek7 (Homo sapiens) (UniProt Q8TDX7). Put plainly: Inhibition of NEK7 (unknown origin) at 3 uM relative to control.
Experiment [2] deals with T1, Serine/threonine-protein kinase Nek5 (Homo sapiens) (UniProt Q6P3R8).
T1 sequence (whole entry): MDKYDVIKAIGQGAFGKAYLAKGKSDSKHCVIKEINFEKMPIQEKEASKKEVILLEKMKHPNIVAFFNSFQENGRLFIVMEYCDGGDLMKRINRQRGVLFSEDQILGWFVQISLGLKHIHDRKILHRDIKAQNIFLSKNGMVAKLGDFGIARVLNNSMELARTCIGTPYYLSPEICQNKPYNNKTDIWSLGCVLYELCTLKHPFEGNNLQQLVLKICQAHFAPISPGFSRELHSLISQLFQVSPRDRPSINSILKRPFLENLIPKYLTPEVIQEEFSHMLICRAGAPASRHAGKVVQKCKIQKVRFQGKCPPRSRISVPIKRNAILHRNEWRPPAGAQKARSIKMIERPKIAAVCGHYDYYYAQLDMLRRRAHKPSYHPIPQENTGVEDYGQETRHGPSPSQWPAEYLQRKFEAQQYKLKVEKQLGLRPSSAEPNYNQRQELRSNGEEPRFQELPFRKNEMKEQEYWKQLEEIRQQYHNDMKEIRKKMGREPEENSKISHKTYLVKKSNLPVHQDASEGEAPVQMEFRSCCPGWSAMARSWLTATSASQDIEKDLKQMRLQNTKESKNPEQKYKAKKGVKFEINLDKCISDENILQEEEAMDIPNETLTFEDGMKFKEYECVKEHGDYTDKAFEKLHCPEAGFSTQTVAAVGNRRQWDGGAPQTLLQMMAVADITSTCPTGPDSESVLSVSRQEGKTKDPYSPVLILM
The experiment can be described thus: Inhibition of NEK5 (unknown origin) at 10 uM relative to control.

For experiment [3], the target named is T2, Serine/threonine-protein kinase Nek3 (Homo sapiens) (UniProt P51956).
T2 sequence (whole entry): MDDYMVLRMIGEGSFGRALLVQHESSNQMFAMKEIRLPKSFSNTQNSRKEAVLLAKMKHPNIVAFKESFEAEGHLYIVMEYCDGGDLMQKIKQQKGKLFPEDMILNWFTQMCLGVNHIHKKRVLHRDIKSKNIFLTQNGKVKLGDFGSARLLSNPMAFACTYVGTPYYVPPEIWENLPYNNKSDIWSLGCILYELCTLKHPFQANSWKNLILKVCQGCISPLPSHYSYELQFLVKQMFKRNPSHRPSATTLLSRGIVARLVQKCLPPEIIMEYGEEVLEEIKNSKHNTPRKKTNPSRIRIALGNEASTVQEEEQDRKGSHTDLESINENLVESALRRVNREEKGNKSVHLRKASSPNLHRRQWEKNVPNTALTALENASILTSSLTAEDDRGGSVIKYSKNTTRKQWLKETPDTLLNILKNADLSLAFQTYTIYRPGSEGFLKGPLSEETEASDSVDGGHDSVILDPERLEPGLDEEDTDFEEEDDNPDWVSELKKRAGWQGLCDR
The experiment can be described thus: Inhibition of NEK3 (unknown origin) at 10 uM relative to control.

For experiment [4], the target named is Serine/threonine-protein kinase Nek4 (Homo sapiens) (UniProt P51957). The experiment can be described thus: Inhibition of NEK4 (unknown origin) at 10 uM relative to control.
Sequence of Serine/threonine-protein kinase Nek4 (Homo sapiens) (P51957 whole entry, looked up): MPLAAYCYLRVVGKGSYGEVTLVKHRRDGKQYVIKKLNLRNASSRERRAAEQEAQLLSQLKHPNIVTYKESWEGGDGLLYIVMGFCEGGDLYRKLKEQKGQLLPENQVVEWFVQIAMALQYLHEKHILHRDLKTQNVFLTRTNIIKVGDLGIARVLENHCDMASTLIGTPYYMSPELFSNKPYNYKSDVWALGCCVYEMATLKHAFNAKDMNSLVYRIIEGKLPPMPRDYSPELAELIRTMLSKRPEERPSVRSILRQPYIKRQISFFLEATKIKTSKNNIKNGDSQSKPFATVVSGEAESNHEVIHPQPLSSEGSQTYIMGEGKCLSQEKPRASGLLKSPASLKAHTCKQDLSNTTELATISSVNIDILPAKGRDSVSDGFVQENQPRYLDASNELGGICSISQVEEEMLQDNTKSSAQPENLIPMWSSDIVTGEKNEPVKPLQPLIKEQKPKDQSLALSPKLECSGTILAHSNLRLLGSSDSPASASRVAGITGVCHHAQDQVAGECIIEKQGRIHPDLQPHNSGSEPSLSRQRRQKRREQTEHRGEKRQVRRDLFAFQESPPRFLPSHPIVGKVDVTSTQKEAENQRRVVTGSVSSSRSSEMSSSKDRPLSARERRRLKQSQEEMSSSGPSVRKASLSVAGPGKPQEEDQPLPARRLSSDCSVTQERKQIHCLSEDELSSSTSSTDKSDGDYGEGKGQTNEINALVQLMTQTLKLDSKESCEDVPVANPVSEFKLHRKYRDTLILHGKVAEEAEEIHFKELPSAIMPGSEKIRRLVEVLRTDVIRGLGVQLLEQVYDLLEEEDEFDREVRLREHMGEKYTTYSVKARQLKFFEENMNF
Experiment [5] addresses Serine/threonine-protein kinase Nek7 (Homo sapiens) (UniProt Q8TDX7). The experiment can be described thus: Inhibition of NEK7 (unknown origin) at 10 uM relative to control.
The target in experiment [6] is T3, Serine/threonine-protein kinase Nek9 (Homo sapiens) (UniProt Q8TD19).
T3 sequence (whole entry): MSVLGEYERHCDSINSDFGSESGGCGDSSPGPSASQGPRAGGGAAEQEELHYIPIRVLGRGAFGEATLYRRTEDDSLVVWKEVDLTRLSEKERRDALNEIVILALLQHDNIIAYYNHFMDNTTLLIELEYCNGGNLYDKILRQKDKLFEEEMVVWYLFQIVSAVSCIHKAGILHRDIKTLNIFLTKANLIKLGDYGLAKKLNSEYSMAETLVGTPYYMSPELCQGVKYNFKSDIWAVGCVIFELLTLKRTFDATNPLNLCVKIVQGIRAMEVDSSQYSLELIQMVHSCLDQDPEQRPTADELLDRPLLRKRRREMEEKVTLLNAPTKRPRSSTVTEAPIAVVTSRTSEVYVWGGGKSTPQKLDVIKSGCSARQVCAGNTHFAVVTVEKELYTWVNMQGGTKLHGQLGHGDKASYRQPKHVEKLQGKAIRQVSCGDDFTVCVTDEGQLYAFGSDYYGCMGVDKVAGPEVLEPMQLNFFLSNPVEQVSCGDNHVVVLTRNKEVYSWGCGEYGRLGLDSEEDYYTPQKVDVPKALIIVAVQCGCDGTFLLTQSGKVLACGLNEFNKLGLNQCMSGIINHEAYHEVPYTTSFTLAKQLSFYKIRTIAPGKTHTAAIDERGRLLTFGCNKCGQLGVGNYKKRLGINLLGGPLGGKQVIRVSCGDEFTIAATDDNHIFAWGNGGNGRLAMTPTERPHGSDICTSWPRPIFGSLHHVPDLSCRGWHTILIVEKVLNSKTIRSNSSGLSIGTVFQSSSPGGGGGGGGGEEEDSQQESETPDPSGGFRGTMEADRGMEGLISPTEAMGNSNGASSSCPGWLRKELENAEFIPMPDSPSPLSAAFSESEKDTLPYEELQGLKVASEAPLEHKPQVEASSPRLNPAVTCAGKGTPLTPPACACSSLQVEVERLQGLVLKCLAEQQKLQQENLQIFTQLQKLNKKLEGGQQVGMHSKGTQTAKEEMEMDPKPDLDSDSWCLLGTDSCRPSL
The experiment can be described thus: Inhibition of NEK9 (unknown origin) at 10 uM relative to control.

The target in experiment [7] is Serine/threonine-protein kinase Nek6 (Homo sapiens) (UniProt Q9HC98). Put plainly: Inhibition of NEK6 (unknown origin) at 10 uM relative to control.
Sequence of Serine/threonine-protein kinase Nek6 (Homo sapiens) (Q9HC98 whole entry): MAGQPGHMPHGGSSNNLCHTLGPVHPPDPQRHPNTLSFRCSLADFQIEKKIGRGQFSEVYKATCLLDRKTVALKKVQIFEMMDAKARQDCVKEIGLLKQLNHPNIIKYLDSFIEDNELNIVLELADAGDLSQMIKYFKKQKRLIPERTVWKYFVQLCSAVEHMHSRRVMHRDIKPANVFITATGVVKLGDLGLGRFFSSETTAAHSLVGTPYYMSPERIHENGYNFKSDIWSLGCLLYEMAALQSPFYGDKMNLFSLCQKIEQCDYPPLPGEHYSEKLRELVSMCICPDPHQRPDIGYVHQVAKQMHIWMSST
Experiment [8] addresses T4, Serine/threonine-protein kinase Nek2 (Homo sapiens) (UniProt P51955).
T4 sequence (whole entry): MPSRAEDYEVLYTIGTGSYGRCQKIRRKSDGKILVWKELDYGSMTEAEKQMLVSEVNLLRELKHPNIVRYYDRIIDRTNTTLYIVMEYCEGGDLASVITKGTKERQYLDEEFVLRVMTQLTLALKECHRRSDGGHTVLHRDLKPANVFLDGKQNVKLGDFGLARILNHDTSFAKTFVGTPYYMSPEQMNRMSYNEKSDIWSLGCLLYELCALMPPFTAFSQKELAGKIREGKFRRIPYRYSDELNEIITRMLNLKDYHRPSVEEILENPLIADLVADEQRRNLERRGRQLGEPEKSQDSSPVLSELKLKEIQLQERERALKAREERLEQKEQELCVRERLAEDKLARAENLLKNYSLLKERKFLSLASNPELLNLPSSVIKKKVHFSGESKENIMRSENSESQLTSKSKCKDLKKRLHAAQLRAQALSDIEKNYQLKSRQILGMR
The experiment can be described thus: Inhibition of NEK2 (unknown origin) at 10 uM relative to control.

Experiment [9] deals with Serine/threonine-protein kinase Nek2 (Homo sapiens, UniProt P51955). Put plainly: Inhibition of NEK2 (unknown origin) assessed as dissociation constant.
Experiment [10] deals with T3, Serine/threonine-protein kinase Nek9 (Homo sapiens). The experiment can be described thus: Inhibition of NEK9 (unknown origin) at 100 nM relative to control.
Experiment [11] shares this target. Put plainly: Inhibition of NEK9 (unknown origin) at 1 uM relative to control.
Experiment [12] deals with T4, Serine/threonine-protein kinase Nek2 (Homo sapiens). Put plainly: Inhibition of NEK2 (unknown origin) at 1 uM relative to control.
Experiment [13] has the same target. The experiment can be described thus: Inhibition of NEK2 (unknown origin) at 100 nM relative to control.
Experiment [14] deals with Serine/threonine-protein kinase Nek7 (Homo sapiens) (UniProt Q8TDX7). Put plainly: Inhibition of NEK7 (unknown origin) at 100 nM relative to control.
For experiment [15], the target named is Serine/threonine-protein kinase Nek6 (Homo sapiens) (UniProt Q9HC98). The experiment can be described thus: Inhibition of NEK6 (unknown origin) at 100 nM relative to control.
The target in experiment [16] is Serine/threonine-protein kinase Nek7 (Homo sapiens) (UniProt Q8TDX7). The experiment can be described thus: Inhibition of NEK7 (unknown origin) at 1 uM relative to control.
In experiment [17] the target is T5, Serine/threonine-protein kinase Nek1 (Homo sapiens) (UniProt Q96PY6).
T5 sequence (whole entry): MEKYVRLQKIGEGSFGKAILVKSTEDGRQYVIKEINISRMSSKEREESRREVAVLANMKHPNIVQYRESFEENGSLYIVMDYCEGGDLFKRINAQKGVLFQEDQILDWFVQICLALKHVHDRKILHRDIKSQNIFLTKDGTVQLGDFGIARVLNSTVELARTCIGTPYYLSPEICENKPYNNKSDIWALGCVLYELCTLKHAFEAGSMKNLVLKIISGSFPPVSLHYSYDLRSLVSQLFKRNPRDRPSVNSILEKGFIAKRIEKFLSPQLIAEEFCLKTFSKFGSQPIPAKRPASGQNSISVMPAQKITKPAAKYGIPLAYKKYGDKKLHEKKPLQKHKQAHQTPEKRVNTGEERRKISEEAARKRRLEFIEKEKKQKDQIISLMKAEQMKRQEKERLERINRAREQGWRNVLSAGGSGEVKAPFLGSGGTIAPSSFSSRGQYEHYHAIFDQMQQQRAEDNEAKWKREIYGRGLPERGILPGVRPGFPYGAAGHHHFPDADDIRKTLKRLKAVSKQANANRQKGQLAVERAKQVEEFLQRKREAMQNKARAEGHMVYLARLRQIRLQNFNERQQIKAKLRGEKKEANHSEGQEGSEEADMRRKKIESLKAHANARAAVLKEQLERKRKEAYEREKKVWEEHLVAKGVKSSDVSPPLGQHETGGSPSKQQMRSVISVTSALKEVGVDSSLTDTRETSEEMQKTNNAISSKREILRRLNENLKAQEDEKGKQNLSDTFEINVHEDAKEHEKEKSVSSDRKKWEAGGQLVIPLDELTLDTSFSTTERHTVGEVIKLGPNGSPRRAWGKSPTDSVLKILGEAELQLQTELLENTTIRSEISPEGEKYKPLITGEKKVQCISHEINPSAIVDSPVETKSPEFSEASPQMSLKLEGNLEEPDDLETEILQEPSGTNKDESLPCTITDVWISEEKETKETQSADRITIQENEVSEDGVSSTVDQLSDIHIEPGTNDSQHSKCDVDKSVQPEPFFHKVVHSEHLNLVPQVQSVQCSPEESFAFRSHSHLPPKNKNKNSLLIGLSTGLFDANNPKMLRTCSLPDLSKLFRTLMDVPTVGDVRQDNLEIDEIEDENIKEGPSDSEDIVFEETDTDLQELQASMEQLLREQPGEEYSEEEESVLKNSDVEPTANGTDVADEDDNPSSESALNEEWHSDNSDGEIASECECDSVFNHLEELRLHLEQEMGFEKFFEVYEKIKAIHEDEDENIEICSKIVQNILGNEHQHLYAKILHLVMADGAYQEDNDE
Put plainly: Inhibition of NEK1 (unknown origin) at 100 nM relative to control.

The target of experiment [18] is Serine/threonine-protein kinase Nek6 (Homo sapiens) (UniProt Q9HC98). Put plainly: Inhibition of NEK6 (unknown origin) at 1 uM relative to control.
The target in experiment [19] is T6, Serine/threonine-protein kinase Nek9 (Homo sapiens, UniProt Q8TD19). The experiment can be described thus: Inhibition of NEK9 (unknown origin).
The target in experiment [20] is Serine/threonine-protein kinase Nek1 (Homo sapiens, UniProt Q96PY6). Put plainly: Inhibition of NEK1 (unknown origin) assessed as dissociation constant.
Experiment [21] addresses Serine/threonine-protein kinase Nek3 (Homo sapiens, UniProt P51956). Put plainly: Inhibition of NEK3 (unknown origin) assessed as dissociation constant.
Experiment [22] concerns the target T6, Serine/threonine-protein kinase Nek9. The experiment can be described thus: Inhibition of NEK9 (unknown origin) assessed as dissociation constant.
The target of experiment [23] is Serine/threonine-protein kinase Nek4 (Homo sapiens) (UniProt P51957). The experiment can be described thus: Inhibition of NEK4 (unknown origin) at 100 nM relative to control.
Experiment [24] deals with Mitogen-activated protein kinase kinase kinase 8 (Homo sapiens, UniProt P41279). Put plainly: Inhibition of MAP3K8 (unknown origin).
Sequence of Mitogen-activated protein kinase kinase kinase 8 (P41279 whole entry): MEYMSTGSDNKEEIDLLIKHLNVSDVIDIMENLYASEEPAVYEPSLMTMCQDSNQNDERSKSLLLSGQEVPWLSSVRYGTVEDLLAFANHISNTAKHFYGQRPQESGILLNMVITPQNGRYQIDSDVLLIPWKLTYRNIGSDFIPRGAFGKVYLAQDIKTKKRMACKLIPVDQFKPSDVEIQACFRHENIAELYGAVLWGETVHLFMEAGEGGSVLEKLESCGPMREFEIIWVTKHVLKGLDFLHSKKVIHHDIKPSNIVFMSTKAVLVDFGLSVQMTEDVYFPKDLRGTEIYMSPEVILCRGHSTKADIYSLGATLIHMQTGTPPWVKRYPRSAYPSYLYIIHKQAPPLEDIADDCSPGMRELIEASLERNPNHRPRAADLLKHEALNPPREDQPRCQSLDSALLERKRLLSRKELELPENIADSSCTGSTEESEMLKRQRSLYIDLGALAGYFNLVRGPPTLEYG

Molecules are shown by their SMILES. Bounds are passed on as bounds.

Sequence of Serine/threonine-protein kinase Nek7 (Homo sapiens) (Q8TDX7 whole entry, looked up): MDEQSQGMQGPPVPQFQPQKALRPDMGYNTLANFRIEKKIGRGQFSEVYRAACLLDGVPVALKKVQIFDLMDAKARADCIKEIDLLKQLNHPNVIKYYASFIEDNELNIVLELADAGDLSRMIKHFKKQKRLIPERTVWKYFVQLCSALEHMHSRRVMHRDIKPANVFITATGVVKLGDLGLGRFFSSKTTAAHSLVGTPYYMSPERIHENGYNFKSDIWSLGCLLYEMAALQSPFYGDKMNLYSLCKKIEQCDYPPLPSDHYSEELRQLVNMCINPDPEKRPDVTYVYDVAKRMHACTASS

A word on the inhibition: it is the drop in the measured response relative to a control, in per cent. Consider `COCCOc1cc2c(-n3nc(-c4ccccn4)nc3N)ncnc2cc1OC`, for which the inhibition in experiment [1] came to 78%.
By Kd is commonly meant the equilibrium constant for the complex coming apart. Consider `CCCS(=O)(=O)Nc1ccc(F)c(C(=O)c2c[nH]c3ncc(-c4ccc(Cl)cc4)cc23)c1F` [VEMURAFENIB], for which the % control was 100% in [2]; 69% in experiment [3]; 71% in experiment [4]; 59% in experiment [5]; 66% in [6]; 91% in experiment [7]. The same molecule registered a % control in experiment [8] of 49%. Also, in experiment [9], the Kd turned out to be 5000 nM.
On to `COc1cc(Nc2ncc3c(C)nc(-c4cccc(Oc5ccccc5)c4)n3n2)cc(OC)c1OC`, for which the inhibition in experiment [10] is 3%; in experiment [11] it was -1%; in experiment [12], 32%; in experiment [13], 7%; in experiment [14], 4%; in [15] it was 29%. Further, the inhibition worked out at 2% in experiment [16], 3% in experiment [17] and 81% in [18].
For `COc1cc(Nc2ncc3c(C)nc(-c4cccc(C(F)(F)F)c4)n3n2)cc(OC)c1OC`, the inhibition in experiment [10] stood at 55%; in experiment [11], 86%; in experiment [12], 38%; in experiment [13] it was 8%; in experiment [14], 6%; in experiment [15] it was 4%. Further, the inhibition is 10% in experiment [16], 5% in [17] and 9% in experiment [18].
The IC50 is the concentration needed to halve the response being measured. Low readings indicate greater potency, high ones weaker potency. In turn, `N#CCNC(=O)c1ccc(-c2ccnc(Nc3ccc(N4CCOCC4)cc3)n2)cc1` [MOMELOTINIB] gave a half-inhibitory concentration (IC50) in experiment [19] of 100 nM. The Kd in experiment [20], in experiment [21] and in experiment [22] was < 100 nM each time.
As to `NC(=O)c1ccc(-c2ccc(Oc3cncc4sc(-c5nn[nH]n5)cc34)cc2)cc1`, the inhibition in [23] came to 89.9%. In [24], this molecule showed an IC50 of 150 nM.

The values above are taken from ChEMBL document CHEMBL5252509, “In depth analysis of kinase cross screening data to identify chemical starting points for inhibition of the Nek family of kinases” (Medchemcomm, 2018).
